In US20150057226A1, “METHOD FOR TREATMENT OF LABOR ARREST” (DILAFOR AB, priority 2012, published 2015):
Positions of bridges follow the written chain, without caps; N, C: chain ends. Non-standard residues stand in square brackets, D forms with d. Residues, ends and D or L forms follow the SMILES beside them. Orn = NCCC[C@H](N)C(=O)O; Mpa = O=C(O)CCS

Columns and labels:
[1] = system: Human uterine smooth muscle cells; test: Intracellular Ca2+ with Fluo-4, live cell confocal imaging; assay type: cell-based
Experimental: Human uterine smooth muscle cells were established in a culture. Intracellular Ca^2+ was measured with the calcium indicator dye Fluo-4 and live cell imaging with confocal microscopy was established for the cells.
It was further investigated if the main transport mechanism of inositol-3 phosphate (IP3) stimulated Ca^2+ transport of the endoplasmatic reticulum. To study this pathway, 2-Aminoethoxydiphenyl borate (2-APB) was tested on Ca^2+ after 30 min of incubation with a concentration of 100 μM.
To further characterize the interaction between oxytocin and DF01 the effect of the oxytocin receptor antagonist Atosiban was used and the cells subjected to the DF01 enhanced oxytocin effect on Ca^2+ transport.

[2] = subcutaneous; species not stated; cited from earlier work

Molecule: NCCOB(c1ccccc1)c1ccccc1 [2-APB, 2-Aminoethoxydiphenyl borate]
- effect on oxytocin and oxytocin/DF01 stimulated Ca2+-transport ([1]; 100 μM, after 30 min of incubation): decreased strongly

Molecule: CCOc1ccc(C[C@H]2NC(=O)CCSSC[C@@H](C(=O)N3CCC[C@H]3C(=O)N[C@@H](CCCN)C(=O)NCC(N)=O)NC(=O)[C@H](CC(N)=O)NC(=O)[C@H]([C@@H](C)O)NC(=O)[C@H]([C@@H](C)CC)NC2=O)cc1 [Atosiban] ([Mpa][dY](Et)ITNCP[Orn]G-NH2; disulfide 1-6)
- effect on oxytocin and oxytocin/DF01 effect on Ca2+ transport ([1]; 10^−6 M): clearly inhibited

Molecule: CC[C@H](C)[C@@H]1NC(=O)[C@H](Cc2ccc(O)cc2)NC(=O)[C@@H](N)CSSC[C@@H](C(=O)N2CCC[C@H]2C(=O)N[C@@H](CC(C)C)C(=O)NCC(N)=O)NC(=O)[C@H](CC(N)=O)NC(=O)[C@H](CCC(N)=O)NC1=O [oxytocin]
- Ca2+-influx to the cytosol ([1]; cells treated with oxytocin): demonstrated
- oxytocin concentration giving maximum effect on Ca2+-influx ([1]; dose-dependent effect): 0.05 IU/ml

Molecule: heparin
- corresponding bioavailability [2]: about 10%
